Like-named read-outs stand apart in the source and are kept apart here.
How the values were obtained:
[1] = Pharmacokinetic study in rats after intragastric administration of Farfarae Flos extract (plasma, LC-MS/MS); format: in vivo; settings: for Cmax / Tmax / half-life / MRT last / MRT inf: male; for Cmax: rat, plasma, po; for Tmax / half-life / MRT last / MRT inf / AUC(0–24h) / AUC(0–∞): rat plasma; for MRT last: read-out: MRT(0–24h); for MRT inf: read-out: MRT(0–∞)
Description: A high-performance liquid chromatography instrument was used to separate three types of compounds (Agilent 1200 series, USA). The HPLC instrument is composed of four parts; a G1322A degasser, G1312A Bin Pump, G1367B auto-sampler, and G1316A thermostatic column compartment. Three types of compounds and three internal standards (ISs) were separated on an Eclipse Plus C18 (4.6 × 100 mm, 1.8 μm). The mobile phase was composed of formic acid aqueous solution (A) and formic acid methanol solution (B). The concentration of formic acid in both A and B solution was 0.1% (v/v). The gradient elution was as follows. The proportion of 10% B changes to 40% from 0 min to 3mins. 40% B changes to 90% from 16 to 18 min. B is maintained at 100% from 19 to 28 min. The flow rate, sample injected volume, and column temperature was 0.35 mL·min^−1, 10 μL, and 35°C, respectively.
Quantitative analysis of all samples was performed on Sciex API 3200 with an electrospray ionization (ESI) source. Analyst 1.6.2 workstation for instrument operation, data management, and data analysis were employed to analyze and process data (AB, Sciex). Ten analyzed compounds and three ISs were optimized during multiple reactions monitoring (MRM). […] MRM parameters of CCLA were set at 353.1-191.0. […] MRM parameters of IAB were set as 515.3-353.2 and MRM parameters of IAA were set at 515.2-353.0. MRM parameters of IAC and tussilagone were set as 515.3-352.9, 391.4-217.4, respectively.
Twenty male rats (4 months old, weight 240 ± 20 g) were obtained commercially from Vital River Laboratory Animal Company (Beijing, China). Before the pharmacokinetic experiments, they were free to eat food and drink water for one week for adapting to the environment when the dark light cycle was 12 hours, while the temperature was maintained at 25 ± 5°C. The animal experiments were guided and strictly approved by Tianjin Hospital animal ethics committee. They were fasted for 12 hours and could only drink freely water before intragastric administration of Farfarae Flos extract. Ten rats in each group were employed for eliminating data variation caused by different animal individuals. All rats in groups 1 and group 2 were orally administrated one time at two dosages of Farfarae Flos extract (carboxymethyl cellulose sodium salt (0.5%) was used to suspend the extract to prepare the administration solution 3.90 g·kg^−1 and 7.80 g·kg^−1), respectively. Rats were anesthetized with ether. The heparinized 1.5 mL polythene tube was used to collect bank plasma samples before administering dose of the extract. About 250 μL plasma samples were collected at each collecting points of 5 min, 10 min, 0.25 h, 0.50 h, 0.75 h, 1 h, 2 h, 4 h, 8 h, 12 h, 24 h, and 36 h via fossa orbitalis after dosing. All plasma samples from collecting points need to be centrifuged at 4,000 rpm for ten minutes. The supernatant fluid of centrifuged plasma samples was obtained and immediately stored at −20°C in a refrigerator until they were analyzed.
The maximum concentration (Cmax) and the time to reach the maximum concentration (Tmax) of ten target compounds were directly calculated by the real concentration-time data in the plasma. The data were expressed as mean ± SD.
Ten microliters of ISs solution (contained puerarin, ferulic acid, and artemisinin) and the plasma sample (100 μL) were added into a clean tube, and then acetonitrile (400 μL) was added to precipitate protein. After centrifugation at 14000 rpm for 10 minutes, a mild nitrogen flow was used to evaporate the liquid of the supernatant to dryness. Then, the residue was dissolved in methanol (100 μL). The solution was vortexed for 3 min, mixed for 3 minutes with ultrasound, and centrifuged for 10 min. Finally, the solution (10 μL) was used to detect concentration of ten target compounds in rat plasma.

[2] = Stability of QC samples in rat plasma (24 h, freeze-thaw, 4 weeks); format: in vitro ADME; settings: six replicates; for 24 h stability Remain (%): 24 hours at 20°C; for Freeze-thaw stability, percent remaining: freeze-thaw cycles −20°C to 20°C; for Long stability Remain (%): stored at −80°C for 4 weeks
Method: Stock solution of 10 analytical compounds (1.00 mg·mL^−1) and three internal standards (ISs) was dissolved in methanol and placed in the refrigerator before testing. Methanol was used to prepare ferulic acid (IS1), puerarin (IS2), and artemisinin (IS3) solutions to reach a concentration of 1 μg mL^−1, respectively. A specific volume of each analyte stock solution is mixed together to prepare the standard working solution containing 10 analytes with a concentration of 10 times at LLOQ and three levels (high, medium, and low). Quality control (QC) samples for methodological validation were prepared to obtain the final concentration by adding standard working solution (10 μL) into blank plasma samples (100 μL).
Four concentration levels of ICB and ICA were 4, 12, 400, and 12000 ng mL^−1, respectively. Four concentration levels of caffeic acid were 10, 30, 1000, and 30000 ng·mL^−1, respectively.
In the stability test, 24-hour stability (The samples were placed for 24 hours at 20°C and then measured), freeze-thaw cycles (The sample was injected after the temperature changing from −20°C to 20°C), and 4 weeks stability (The sample was determined after stored at −80°C for 4 weeks) of representative QC samples were all tested. All of them were assayed with six replicates.

[3] = 3.9 g/kg, oral Farfarae Flos extract 3.9 g·kg^−1, mean ± SD
[4] = 7.8 g/kg, oral Farfarae Flos extract 7.8 g·kg^−1, mean ± SD
[5] = oral Farfarae Flos extract 3.9 g·kg^−1, mean ± SD
[6] = oral Farfarae Flos extract 7.8 g·kg^−1, mean ± SD
[7] = high concentration level (3000-30000 ng·mL^−1)
[8] = low concentration level (3-30 ng·mL^−1)
[9] = medium concentration level (100-1000 ng·mL^−1)

| Cmax [1, 3] [ng/mL] | Cmax [1, 4] [ng/mL] | Tmax [1, 5] [h] | half-life [1, 5] [h] | MRT last [1, 5] [h] | MRT inf [1, 5] [h] | Tmax [1, 6] [h] | half-life [1, 6] [h] | MRT last [1, 6] [h] | MRT inf [1, 6] [h] | AUC(0–24h) [1, 5] [ng/mL ∗ h] | AUC(0–24h) [1, 6] [ng/mL ∗ h] | AUC(0–∞) [1, 6] [ng/mL ∗ h] | 24 h stability Remain (%) [2, 7] [%] | Freeze-thaw stability, percent remaining [2, 7] [%] | Long stability Remain (%) [2, 7] [%] | 24 h stability Remain (%) [2, 8] [%] | Freeze-thaw stability, percent remaining [2, 8] [%] | Long stability Remain (%) [2, 8] [%] | 24 h stability Remain (%) [2, 9] [%] | SMILES | further results |
| --- | --- | --- | --- | --- | --- | --- | --- | --- | --- | --- | --- | --- | --- | --- | --- | --- | --- | --- | --- | --- | --- |
| 177 ± 131 | > 1000 | 0.64 ± 0.2 | 1.03 ± 0.53 | 4.17 ± 1.73 | 5.16 ± 2.01 | 0.39 ± 0.2 | 1.06 ± 0.58 | 5.02 ± 2.07 | 6.23 ± 2.1 | 422.3 ± 210.5 | 1938 ± 1401 | 2019 ± 1397 | 112 | 93.2 | 95.9 | 98.4 | 96.8 | 97.5 | 112 | O=C(/C=C/c1ccc(O)c(O)c1)O[C@H]1[C@H](O)C[C@](O)(C(=O)O)C[C@H]1O [CCLA, cryptochlorogenic acid] | AUC(0–∞) [1, 5]: 585.7 ± 414.0 ng/mL ∗ h; Freeze-thaw stability, percent remaining [2, 9]: 82.9%; Long stability Remain (%) [2, 9]: 98.6% |
| 96.3 ± 36.6 | 106 ± 24.4 | 0.23 ± 0.04 | 4.65 ± 4.89 | 6.47 ± 3.05 | 14.8 ± 8.46 | 0.21 ± 0.04 | 2.75 ± 2.71 | 4.81 ± 3.64 | 15.6 ± 10.5 | 338.9 ± 246.4 | 473.5 ± 273.8 | 723.9 ± 468.5 | 90.7 | 85.5 | 81.1 | 81.1 | 101 | 113 | 113 | O=C(O)/C=C/c1ccc(O)c(O)c1 [Caffeic acid, caffeic acid] | AUC(0–∞) [1, 5]: 691.7 ± 477.5 ng/mL ∗ h; Freeze-thaw stability, percent remaining [2, 9]: 87.2%; Long stability Remain (%) [2, 9]: 109% |
| 47.3 ± 29.6 | 265 ± 95.5 | 0.56 ± 0.25 | 4.25 ± 6.16 | 5.79 ± 3.25 | 18.7 ± 18.6 | 0.35 ± 0.21 | 1.37 ± 0.83 | 8.8 ± 2.73 | 13.8 ± 4.86 | 187 ± 85.5 | 823.4 ± 182.9 | 941.9 ± 204.7 | 97.6 | 93.7 | 106 | 91.7 | 106 | 102 | 105 | O=C(C=Cc1ccc(O)c(O)c1)OC1CC(O)(C(=O)O)CC(O)C1OC(=O)C=Cc1ccc(O)c(O)c1 (stereo not shown) [IAC, isochlorogenic acid C] | AUC(0–∞) [1, 5]: 319.1 ± 217.3 ng/mL ∗ h; Freeze-thaw stability, percent remaining [2, 9]: 98.6%; Long stability Remain (%) [2, 9]: 108% |

| SMILES | Cmax [1, 3] [ng/mL] | Cmax [1, 4] [ng/mL] | Tmax [1, 5] [h] | half-life [1, 5] [h] | MRT last [1, 5] [h] | MRT inf [1, 5] [h] | Tmax [1, 6] [h] | half-life [1, 6] [h] | MRT last [1, 6] [h] | MRT inf [1, 6] [h] | AUC(0–24h) [1, 5] [ng/mL ∗ h] | AUC(0–24h) [1, 6] [ng/mL ∗ h] | AUC(0–∞) [1, 6] [ng/mL ∗ h] | 24 h stability Remain (%) [2, 7] [%] | Freeze-thaw stability, percent remaining [2, 7] [%] | Long stability Remain (%) [2, 7] [%] | 24 h stability Remain (%) [2, 8] [%] | Freeze-thaw stability, percent remaining [2, 8] [%] | Long stability Remain (%) [2, 8] [%] | 24 h stability Remain (%) [2, 9] [%] | further results |
| --- | --- | --- | --- | --- | --- | --- | --- | --- | --- | --- | --- | --- | --- | --- | --- | --- | --- | --- | --- | --- | --- |
| O=c1c(O[C@@H]2O[C@H](CO)[C@@H](O)[C@H](O)[C@H]2O)c(-c2ccc(O)c(O)c2)oc2cc(O)cc(O)c12 [Isoquercitrin, isoquercitrin] | 5.81 ± 5.72 | 10.2 ± 6.83 | 0.44 ± 0.26 | 0.88 ± 1.01 | 3.16 ± 3.46 | 7.56 ± 6.22 | 0.27 ± 0.1 | 1.19 ± 1.65 | 2.81 ± 1.79 | 9.94 ± 10.4 | 7.284 ± 5.643 | 16.15 ± 12.24 | 25.18 ± 13.92 | 113 | 110 | 92.3 | 84.4 | 104 | 92.0 | 113 | Freeze-thaw stability, percent remaining [2, 9]: 111%; Long stability Remain (%) [2, 9]: 105% |

Reference: publication PMC8970883, “Simultaneous Determination of Seven Phenolic Acids, Two Flavonoids, and Tussilagone in Rat Plasma after Administration of Farfarae Flos Extract by LC–MS/MS” (Evidence-based Complementary and Alternative Medicine : eCAM, 2022)
